Measurements: patent US20230398243A1, “THERAPEUTIC, RADIOLABELED NANOPARTICLES AND METHODS OF USE THEREOF” (The General Hospital Corporation, priority 2020, published 2023)

Tested on: MDA-MB-231-luc-D3H2LN cell line
Assay: tumor cell apoptosis, proliferation, invasion, migration and cell cycle
Assay type: cell-based, human
Conditions: low-dose doxorubicin
Description: 21.6±0.5-nm dextran coated magnetic nanoparticles were conjugated to 8±0.7 LNA antagomirs targeting miRNA-10b, (Exiqon, Woburn, MA) (FIG. 1A). The MN-anti-miR10b therapeutic was functional in the human lymph-node metastatic MDA-MB-231-luc-D3H2LN cell line (Perkin Elmer, Hopkinton MA). […] In order to assess the therapeutic potential of this methodology, the effect of miR-10b inhibition on tumor cell apoptosis, proliferation, invasion and migration was investigated.
It was also hypothesized that by co-administering a low dose of a cytotoxic chemotherapeutic (e.g., doxorubicin), the effectiveness of the therapeutic could be amplified, leading not only to inhibition of tumor growth, but regression and, possibly, elimination of metastasis. […] Further proof for this hypothesis came from experiments in which we attempted to generate a miR-10b knock-out subline derived from the MDA-MB-231-luc-D3H2LN cell line (FIG. 3A). We observed that within 24 h of transfection with the knock-out vector set (TALEN5 L+R), the cells acquired a spindle-shaped conformation and began to detach. By 72 h of transfection, there were no viable cells (FIG. 3B).

Q: How did the “effect on the cell cycle (flow cytometry)” value turn out when COc1cccc2c1C(=O)c1c(O)c3c(c(O)c1C2=O)C[C@@](O)(C(=O)CO)C[C@@H]3O[C@H]1C[C@H](N)[C@H](O)[C@H](C)O1 [doxorubicin] was run?
A: induced polyploidy and G2/M arrest
